Experimental findings from patent US5716934A, “Eck receptor ligands” (Amgen Inc., priority 1995, dated 1998) are described below.

The subject of assay [1] is eck receptor (p130^eck). In words: p130eck autophosphorylation in LIM 2405 cells. The format is cell-based, human. The conditions noted are these: intact LIM 2405 cells, 10-15 min at 37° C. The method, then: The LIM 2405 colorectal carcinoma cell line (Whitehead et al. Immunol. and Cell Biol. 70, 227 (1992)) was maintained in RPMI 1640 containing 5% FBS, 1 μg/ml insulin, 10 μg/ml hydrocortisone and 10 μM α-thioglycerol, and subpassaged by trypsination and dilution (1:5) into fresh media. Prior to assay 2.5×10^5 LIM 2405 cells were seeded into 6-well dishes (Falcon #3046) and incubated for 24 hr at 37° C. The media was discarded and replaced with serum-free RPMI 1640 containing 0.03% BSA, 1 μg/ml insulin, 10 μg/ml hydrocortisone and 10 μM α-thioglycerol, then incubated for 12-18 hr. In some experiments the cell cultures were labelled with ^32 P-orthophosphate (2 mCi/ml) in phosphate-free RPMI 1640 (Flow) for 2-3 hr prior to treatment. Growth factor stock solutions were prediluted at varying concentrations into 2.0 ml of serum-free media, then warmed to 37° C. Cell cultures were removed from the incubator, and the supernatant media discarded. Treatments were promptly added and the cell cultures incubated at 37° C. for 10-15 min. The cultures were then removed from the incubator, placed on ice, and the culture supernatant aspirated.
The treated cell cultures were chilled to 0° C. then washed once with ice-cold PBS (GIBCO). The residual PBS was aspirated and the cells were lysed by the addition of 1.0 ml of ice-cold RIPA buffer (10 mM sodium phosphate, pH 7.4, 150 mM sodium chloride, 0.1% sodium dodecyl sulfate, 1% NP-40, 1% deoxycholate, 1% Trasylol, 2 mM EDTA, 50 mM sodium fluoride and 100 mM sodium orthovanadate). After a 10 min incubation the lysates were transferred to 1.5 ml tubes and clarified by centrifugation for 30 min at 10,000×g. The clarified lysate supernatants were transferred to new tubes and immunoprecipitated with 1.0 μg/ml of affinity purified rabbit anti-Eck C-terminal domain antibody for 2 hr at 0° C. Immune complexes were adsorbed to Protein-G Sepharose beads (Pharmacia) at 4° C. for 30 min, washed twice with ice-cold RIPA buffer, once with 0.1M Tris-HCl, pH 8.0, containing 0.5M LiCl, and once with RIPA. The resulting immunoprecipitates were solubilized with SDS-PAGE sample buffer and stored for further analysis.
The anti-eck immunoprecipitates from treated and untreated LIM 2405 cell lysates were resolved on 7.5% polyacrylamide gels as previously described (Boyle et al. Meth. Enzymol. 201, 110 (1991)). […] Immune complexes were detected by chemiluminescent exposure (ECL, Amersham) to Kodak X-OMAT X-ray film at room temperature for 0.5-5 min.
Eck receptor immunoprecipitates from ^32 P-labelled LIM 2405 cells were resolved by SDS-PAGE, and the gel dried directly without fixation. After exposure to X-ray film the labelled eck receptor band was isolated and phosphoamino acid content determined as described (Boyle et al. Meth. Enzymol. 201, 110 (1991))

Assay [2] relates to granulation tissue in subcutaneously implanted wound chambers. Briefly: Rat wound chamber assay (granulation tissue formation). The format is in vivo. The method, then:
Male Sprague-Dawley specific pathogen free rats (300-350 g; Charles River Breeding Laboratories, Inc.) were used for this study. Rats were anesthetized with sodium pentobarbital (50 mg/kg body weight) by intraperitoneal injection. Using aseptic surgical technique, a 3 cm midline incision was made on the dorsal surface of the rat. A single pocket was formed under the panniculus carnosis by blunt dissection on one side of the animal. A 3 cm long×1 cm diameter sterile stainless steel wire mesh cylinder was then inserted subcutaneously. The wound chambers used were similar to those described by Schilling et. al. (Surgery 46, 702-710 (1959)) and utilized by Hunt et. al. (Am. J. Surg. 114, 302-307 (1967)) as wound healing models. The incision was closed with wound clips. The rats survived the operation well with no evidence of postoperative discomfort. Beginning 3 days after wound chamber implantation, the rats were randomly divided into 5 groups. At this time daily injections of 1) 10 μg CHO-derived EBP, 2) 1 μg CHO-derived EBP, 3) 8 μg E. coli derived EBP, 4) 5 μg recombinant platelet derived growth factor (PDGF), or 5) 0.1 ml sterile PBS and 1 mM CHAPS were begun and continued for a total of 9 days. The injections were made directly into the wound chamber through a silicone septum at the outer edge of the chamber. Twelve days after chamber implantation, the rats were sacrificed by CO2 asphyxiation. Immediately after sacrifice, the chambers were removed surgically and carefully opened. The enclosed granulation tissue was then weighed, and stored at -70° C. for future processing.
Granulation tissue samples were thawed and homogenized with a Polytron homogenizer in 2 ml of ice-cold distilled water for approximately 1 minute. Next, 2 ml of ice-cold 10% trichloroacetic acid was added to the homogenate and incubated at 4° C. for 1 hour. The TCA-precipitated samples were centrifuged (500 g, 10 minutes) at 4° C., washed once with 2 ml of ice-cold 5% TCA, and finally washed with 2 ml of ice-cold 95% ethanol containing 50 mM sodium acetate. Samples were defatted twice with 2 ml of ethanol:ether (3:1, v/v) at 20° C. After each defatting procedure, samples were centrifuged (500×g, 10 minutes) and the supernate discarded. The pellet was then dissolved in 1N sodium hydroxide and brought up to a volume of 10 ml.
Total protein was determined by taking an aliquot of the solubilized granulation tissue and assaying the sample according to the method of Bradford (Anal. Biochem. 72, 248-251 (1976)) Bovine serum albumin (Sigma Chemical Co., St. Louis, Mo.) was used for a protein standard curve.
Total DNA content was determined as deoxy-ribose by the colorimetric method of Burton (Biochem. J. 62, 315 (1956)). Briefly, a 1 ml aliquot of the solubilized sample (in 1N NaOH) was neutralized with the addition of 0.5 ml of 2N HCl. A 1 ml aliquot of the neutralized solution was extracted in 10% perchloric acid at 90° C. for 15 minutes. A 1 ml portion of the final extract was added to 2 ml activated diphenylamine (Sigma Chemical, St. Louis, Mo.) reagent and absorbance at 600 nm was measured after overnight incubation at room temperature. Hydrolyzed calf thymus DNA (Sigma) was used to construct the standard curve. The DNA content was measured as a rough index of the number of cells in the wound chamber, with the realization that cell type and cell cycle status also influence DNA content.
Total glycosaminoglycans (GAGs) were determined using chondroitin sulfate as a standard. A spectrophotometric assay for GAGs was run utilizing a change in absorption spectrum of the dye 1,9- dimethyl methylene blue (Farndale et al. Conn. Tiss. Res. 9, 247-248 (1982)).
Total collagen content was determined as hydroxyproline (an index of collagen content) after hydrolysis of the solubilized granulation tissue in 6N HCl at 110° C. for 24 hours. […]

Assay [3] has as its system extracellular domain of the kit receptor. Briefly: BIAcore binding to surfaces activated with kit receptor extracellular domain. The source says: SDS-PAGE analysis of the fractions from this column confirmed that EBP was co-eluted with the receptor binding activity.
[4] abbreviates: 5 ug per chamber per day x 9 days, harvest day 12, mean ± SEM.
The mark [5] stands for this setting: 5 ug per chamber per day x 9 days, harvest day 12, mean ± SEM, listed as rPDGF.

With “EGF: growth factor used to treat LIM 2405 cells as specificity control [reference compound]”, the eck receptor phosphorylation entry in assay [1] is “nor does EGF treatment induce eck phosphorylation”.
On to PDGF [reference compound], for which, in assay [2] (setting [4]), the DNA was determined as 356 ± 64 µg, the HYDROXY-PROLINE was determined as 478.4 ± 85.9 µg, the “TOTAL GYLCOSAMINO-GLYCANS” value came out at 725.2 ± 104.4 µg and the “TOTAL PROTEIN” value turned out to be 7.46 ± 1.52 mg. In assay [2] (setting [4]), the “WET WEIGHT” value turned out to be 417.4 ± 81.8 mg. Also, in assay [2] (setting [5]), the DNA result is “significantly increased”, the “TOTAL GYLCOSAMINO-GLYCANS” value is given as “significantly increased”, the “TOTAL PROTEIN” value is “significantly increased” and the “WET WEIGHT” value is given as “significantly increased”. The “increase in hydroxyproline content over control chambers” value in assay [2] (PDGF treated chambers (5 μg per day)) is 82%.
Turning to “rSCF: the kit ligand [reference compound]”, the “binding to BIAcore surfaces activated with the extracellular domain of the kit receptor” value in assay [3] is recorded as “could bind”.
